The source of these data is patent publication US11795615B2 (priority 2015, dated 2023).

The test system of data set [1] is microbial control in water. Kind of data set: Microbial control in water at slightly alkaline pH. It is filed as cell-based. The source says:
In some embodiments, microbial control in water at slightly alkaline pH was compared between peracetate oxidant, […] bleach, peracetic acid and […] dioxide. Alkaline pH is encountered in a variety of applications where microbial control and sanitization is needed, including pulp and paper processing, cooling towers, water treatment and chill tanks in poultry processing. […].

Data set [2] can be described thus: Side by side bleaching of Kraft pulp, hand sheet Kappa number, pH and ORP. To be noted: for Kappa No.: unbleached 30.
Data set [3] in a line: Thermal activation in distilled water at pH 8.5 and 50° C. The format is physicochemical. To be noted: pH 8.5, 50° C.
The conditions of data set [4]: gas; cited from earlier work.
For data set [5] the following is noted: 20° C.; cited from earlier work.
Where [6] appears, read: 1.13 g/L PAA equiv., initial pH 8.2, 30 min.

Take `CC(=O)OO` [PAA, peracetic acid]: in data set [1], the “performance as antimicrobial disinfectant” value is on record as “lowest performance”. Further, the “Kappa No.” value in data set [2] (4.0 g/L PAA equiv., initial pH 7.0, 30 min) is listed as 31; in data set [2] (4.0 g/L PAA equiv., initial pH 8.9, 30 min), 29. Besides, the “Kappa unit reduction (bleaching efficiency)” value in data set [2] (hand sheet tests, initial Kappa number 30) is on record as “only up to one Kappa unit reduction”. Besides, the “time of stable peracetic acid and hydrogen peroxide concentrations” value in data set [3] is listed as “about 90 minutes”. Also, the ORP result in data set [3] (peracetate value within 40 minutes) is given as “around 280 mV vs SHE”.
With chlorine dioxide [ClO2], in data set [1], the “performance as antimicrobial disinfectant” value is on record as “performed well”. In data set [4], the vapor pressure entry is given as “greater than 1 atm”. In data set [2] (setting [6]), the “Final ORP” value is listed as 896 mV vs SHE and the “Kappa No.” value was determined as 22. For the same compound, the “solubility limit in water” value in data set [5] is listed as 0.8 % wt/vol.
